Source: patent US20190169218A1, “AMPHIPATHIC COMPOUND HAVING NOVEL PENTA-SACCHARIDE HYDROPHILIC GROUP AND USE THEREOF” (Industry-University Cooperation Foundation Hanyang …, priority 2016, published 2019)

Assays:
[1] = target: T1, boron transporter (BOR1) BOR1-GFP fusion protein (Arabidopsis thaliana, UniProt Q8VYR7); assay: solubilization (extraction) of BOR1-GFP fusion protein from membranes; conditions: amphipathic compound at 1.0 wt %
T1 construct: made in house; host or cells: Saccharomyces cerevisiae FGY217
Method: The ability of PSAs and PSEs to solubilize membrane proteins and to stabilize the structures of membrane proteins was evaluated using boron transporter (BOR1), a membrane protein. BOR1 was isolated from Arabidopsis thaliana, and was expressed in the form of a fusion protein having a GFP tag at the C-terminus in Saccharomyces cerevisiae FGY217 cells. This fusion protein has been proven to have boron transporting activity and is therefore involved in both structural and functional analysis of membrane proteins.
The ability of amphipathic compound PSAs and PSEs to solubilize the boron transporter (BOR1) membrane protein was evaluated.
Specifically, membranes containing BOR1-GFP fusion proteins were treated with an existing amphipathic compound (DDM), PSAs (PSA-C9, PSA-C10 and PSA-C11), or PSEs (PSE-C9, PSE-C11 and PSE-C13) at a concentration of 1.0 wt %. The solubilization efficiencies of PSA-C9, PSA-C10 and PSE-C9 were about 80% similar to the solubilization efficiency of DDM. In particular, the BOR1-GFP protein was quantitatively extracted (˜100%) using PSE-C11 having medium length chains, thus confirming that PSE-C11 is particularly useful for solubilization of BOR1-GFP.
(§1) Specifically, Arabidopsis thaliana-derived BOR1 was expressed in the form of a fusion protein having a GFP tag at the C-terminus in Saccharomyces cerevisiae FGY217 cells. The cells were grown in an URA-medium supplemented with 0.1% glucose. 2% galactose was added to the cell culture to induce protein expression and the cells were cultured at 20° C. for 18 hours (see Drew, D. et al., Nat. Protoc. 2008, 3, 784-798.). After culture, the cells were harvested and used to obtain the cell membranes (see Leung, J. et al., Protein Expr. Purif. 2010, 72, 139-146.). Membranes containing BOR1-GFP fusion proteins were diluted to a final total protein concentration of 2.8 mg/mL in PBS (pH7.4) supplemented with 1 wt % DDM, 1 wt % PSAs (PSA-C9, PSA-C10 or PSA-C11) or 1 wt % PSEs (PSE-C9, PSE-C11 or PSE-C13). The diluted samples were incubated at 4° C. for 1 hour with gentle shaking, and insoluble substances were removed by centrifugation at 14,000 g for 1 hour at 4° C. Supernatants containing the dissolved protein samples were incubated for 10 minutes at the specified temperature (35, 40, 45 or 50° C.), and strongly agglutinated proteins were removed by centrifugation at 14,000 g for 10 minutes at 4° C. 200 μL aliquots were taken from the supernatant and injected into a Superose 6 10/300 column equilibrated with 20 mM Tris-HCl (pH 7.5), 150 mM NaCl and 0.03% DDM. Each elution fraction was collected from a retention volume of 6.4 mL (i.e., after 6.4 mL of solution had passed), and added to a well of a clear bottom 96-well plate at a volume of 200 μL. GFP fluorescence generated in each fraction was measured using an excitation wavelength of 470 nm and an emission wavelength of 512 nm.

[2] = hydrodynamic radius of micelles by dynamic light scattering (DLS); format: physicochemical; conditions: compound at 1.0 wt %
Method: Methods of measuring the radius of micelles are not particularly limited, and methods widely known in the art may be used. For example, dynamic light scattering (DLS) may be used.
(§2) Specifically, critical micellar concentrations (CMCs) were measured using hydrophobic fluorescent staining and diphenylhexatriene (DPH), and the hydrodynamic radii (Rh) of micelles formed by each compound at a concentration of 1.0 wt % were measured using dynamic light scattering (DLS). The results were compared with results obtained from an existing amphipathic molecule (detergent), DDM, and are shown in Table 1.
When measuring, each of PSAs, PSEs and TPSs was used at a concentration of 1.0 wt %.

[3] = critical micelle concentration (CMC) by hydrophobic fluorescent staining with diphenylhexatriene (DPH); format: physicochemical
From the text: Methods of measuring CMC are not particularly limited, and methods widely known in the art may be used. For example, a fluorescence staining method using diphenylhexatriene (DPH) may be used.
To characterize PSAs of Preparation Examples 1 to 3 synthesized according to the synthetic method of Example 1; PSEs of Preparation Examples 4 to 7 synthesized according to the synthetic method of Example 2; TPS-Es and TPS-ELs of Preparation Examples 8 to 14 synthesized according to the synthetic method of Example 3; and TPS-As of Preparation Examples 15 to 17 synthesized according to the synthetic method of Example 4, the critical micellar concentrations (CMCs) of PSAs, PSEs and TPSs and the hydrodynamic radii (Rh) of formed micelles were measured.
as §2

[4] = target: T1, boron transporter (BOR1) BOR1-GFP fusion protein; assay: structural (thermal) stability of solubilized BOR1-GFP by fluorescence-based size exclusion chromatography (FSEC); conditions: heated at 40° C. for 10 minutes, 1 wt % compound
Method: The ability of PSAs or PSEs to stabilize the structure of boron transporter (BOR1) was measured in an aqueous solution. That is, the BOR1 protein solubilized in each amphipathic compound was denatured by heating, and then structural stability of BOR1 was measured using fluorescence-based size exclusion chromatography (FSEC).
as §1

[5] = target: T2, Salmonella typhimurium melibiose permease (MelB) (Salmonella typhimurium, UniProt P30878); assay: MelB extraction efficiency and thermal stability by SDS-PAGE and western immunoblotting; conditions: 1.5 wt %, 0° C., 90 minutes (similar results at 45° C.)
T2 construct: made in house; host or cells: DW2 cells (melB and lacZY), Salmonella typhimurium DW2; plasmid pK95AHB/WT MelBst/CH10
Method: The ability of PSAs or PSEs to extract (solubilize) MelBst (Salmonella typhimurium melibiose permease) proteins and stabilize the structures thereof was measured. MelB proteins were extracted using PSAs, PSEs or DDM, and the amount of the extracted proteins and structural stability thereof were quantitatively analyzed by SDS-PAGE and western immunoblotting. The protein extraction efficiency and thermally stabilizing ability of the amphipathic compounds were simultaneously evaluated by extracting MelB proteins at four temperatures (0, 45, 55 or 65° C.) for 90 minutes using the amphipathic compounds at a concentration of 1.5 wt %.
Specifically, according to the method described in the journal article (P. S. Chae, et al., Chemistry. 2013, 19, 15645-15651.) published by the present inventors, proteins (MelBst) were produced using a plasmid pK95AHB/WT MelBst/CH10 containing a gene construct encoding wild-type MelB having 10×His tags at the C-terminus and Salmonella typhimurium DW2 cells (melB and lacZY). According to the method described in the journal article (A. S. Ethayathulla et al., Nat. Commun. 2014, 5, 3009), cells were cultured and the cell membranes were obtained from the cultured cells. Protein analysis was performed using a Micro BCA kit (Thermo Scientific, Rockford, Ill.). To measure solubilization/stability, membrane samples (the final concentration of membrane proteins was 10 mg/mL) containing MelBst were mixed with a solubilization buffer solution (20 mM sodium phosphate, pH 7.5, 200 mM NaCl, 10% glycerol and 20 mM melibiose) containing DDM, PSAs (PSA-C11) or PSEs (PSE-C9, PSE-C11, PSE-C13) at a concentration of 1.5% (w/v). Extracts were incubated at four different temperatures (0, 45, 55 and 65° C.) for 90 minutes. Fractions were removed by ultracentrifugation at 355,590 g for 45 minutes using a Beckman Optima™ MAX ultracentrifuge equipped with a No. 4 TLA-100 rotor. 20 μg of proteins was separated using a 15% SDS-PAGE gel. Next, immunoblotting was performed using Penta-His-HRP antibodies (Qiagen, Germantown, Md.). After performing SDS-PAGE and immunoblotting, the amount of solubilized MelB was quantitated and expressed as a percentage of the amount of MelB measured in the control group.

T2 sequence (P30878 whole entry): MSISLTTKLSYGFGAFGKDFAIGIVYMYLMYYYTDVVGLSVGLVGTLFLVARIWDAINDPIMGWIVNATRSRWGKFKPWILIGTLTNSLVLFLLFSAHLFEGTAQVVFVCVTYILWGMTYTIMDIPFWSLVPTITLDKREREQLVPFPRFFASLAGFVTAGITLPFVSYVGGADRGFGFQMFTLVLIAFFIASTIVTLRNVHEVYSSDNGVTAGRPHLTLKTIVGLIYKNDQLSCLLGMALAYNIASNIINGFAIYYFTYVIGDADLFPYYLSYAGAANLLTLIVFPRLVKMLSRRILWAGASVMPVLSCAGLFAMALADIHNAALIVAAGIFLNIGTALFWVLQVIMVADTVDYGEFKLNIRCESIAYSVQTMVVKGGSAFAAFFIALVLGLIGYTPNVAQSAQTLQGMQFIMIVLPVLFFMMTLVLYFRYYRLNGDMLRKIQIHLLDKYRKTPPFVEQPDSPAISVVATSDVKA

solubilization efficiency of BOR1-GFP [1] | Rh (nm), hydrodynamic radius of micelles [2] [nm] | CMC [3] [mM] | CMC (wt %) [3] [wt %] | Structure (SMILES) | structural stability of solubilized BOR1-GFP after heating (RFU, FSEC) [4] | MelB extraction efficiency [5]
about 80% | 2.94 ± 0.05 | ~0.014 | ~0.0016 | CCCCCCCCCC(CCCCCCCCC)CO[C@@H]1OC(CO[C@@H]2OC(CO)[C@@H](O)C(O)C2O)[C@@H](O[C@@H]2OC(CO)[C@@H](O)C(O)C2O)C(O[C@@H]2OC(CO)[C@@H](O)C(O)C2O)C1O[C@@H]1OC(CO)[C@@H](O)C(O)C1O (stereo partly drawn) [PSA-C9] |  | 
about 80% | 3.10 ± 0.05 | ~0.009 | ~0.0010 | CCCCCCCCCCC(CCCCCCCCCC)CO[C@@H]1OC(CO[C@@H]2OC(CO)[C@@H](O)C(O)C2O)[C@@H](O[C@@H]2OC(CO)[C@@H](O)C(O)C2O)C(O[C@@H]2OC(CO)[C@@H](O)C(O)C2O)C1O[C@@H]1OC(CO)[C@@H](O)C(O)C1O (stereo partly drawn) [PSA-C10] | remarkably improved as compared to DDM and PSA-C9 | 

Structure (SMILES) | solubilization efficiency of BOR1-GFP [1] | Rh (nm), hydrodynamic radius of micelles [2] [nm] | CMC [3] [mM] | CMC (wt %) [3] [wt %] | structural stability of solubilized BOR1-GFP after heating (RFU, FSEC) [4] | MelB extraction efficiency [5]
CCCCCCCCCOCC(COCCCCCCCCC)O[C@@H]1OC(CO[C@@H]2OC(CO)[C@@H](O)C(O)C2O)[C@@H](O[C@@H]2OC(CO)[C@@H](O)C(O)C2O)C(O[C@@H]2OC(CO)[C@@H](O)C(O)C2O)C1O[C@@H]1OC(CO)[C@@H](O)C(O)C1O (stereo partly drawn) [PSE-C9] | about 80% | 3.19 ± 0.04 | ~0.026 | ~0.0030 | greatly improved compared to DDM | extracted at an efficiency similar to the efficiency observed in the case of DDM
